Results published in US20260191874A1, “FUSED AMINO PYRIMIDINE COMPOUNDS FOR TREATMENT OF AUTISM SPECTRUM DISORDER, OBSESSIVE COMPULSIVE DISORDER AND TICS” (Ovid Therapeutics Inc., priority 2024, published 2026).

Tests used:
[1] = test system: panel of 144 protein kinases; assay: SelectScreen protein kinase panel; format: biochemical; settings: 144 protein kinases incl. PKC isoforms, OSR1, SPAK, WNK
Procedure: Aliquots of HEK-293 cells expressing KCC2 were exposed to 30 μM SSA, heated from 37-55° C. The remaining level of soluble native KCC2 at each temperature was measured by immunoblotting and normalized to the level seen at 37° C. which was given a value of 1. […] This panel included protein kinase C isoforms, OSR1, SPAK (STK39) and with-no-lysine kinases (WNK), all of which phosphorylate KCC2 on multiple residues to indirectly modify its activity (Kahle et al., 2013, supra; Smalley et al., 2020, supra).

[2] = design: species or system mice; settings: in vivo
KCC4 = target: T1, KCC4 (Homo sapiens, UniProt Q9Y666); assay: Tl+ flux assay in HEK-293 cells expressing KCC4; format: cell-based; settings: read-out: concentration at which effects on KCC4 were seen (EC50 chart, FIG. 1G)
T1 construct: expressed in transfected cells; host or cells: HEK-293
T1 sequence (Q9Y666 1-1083): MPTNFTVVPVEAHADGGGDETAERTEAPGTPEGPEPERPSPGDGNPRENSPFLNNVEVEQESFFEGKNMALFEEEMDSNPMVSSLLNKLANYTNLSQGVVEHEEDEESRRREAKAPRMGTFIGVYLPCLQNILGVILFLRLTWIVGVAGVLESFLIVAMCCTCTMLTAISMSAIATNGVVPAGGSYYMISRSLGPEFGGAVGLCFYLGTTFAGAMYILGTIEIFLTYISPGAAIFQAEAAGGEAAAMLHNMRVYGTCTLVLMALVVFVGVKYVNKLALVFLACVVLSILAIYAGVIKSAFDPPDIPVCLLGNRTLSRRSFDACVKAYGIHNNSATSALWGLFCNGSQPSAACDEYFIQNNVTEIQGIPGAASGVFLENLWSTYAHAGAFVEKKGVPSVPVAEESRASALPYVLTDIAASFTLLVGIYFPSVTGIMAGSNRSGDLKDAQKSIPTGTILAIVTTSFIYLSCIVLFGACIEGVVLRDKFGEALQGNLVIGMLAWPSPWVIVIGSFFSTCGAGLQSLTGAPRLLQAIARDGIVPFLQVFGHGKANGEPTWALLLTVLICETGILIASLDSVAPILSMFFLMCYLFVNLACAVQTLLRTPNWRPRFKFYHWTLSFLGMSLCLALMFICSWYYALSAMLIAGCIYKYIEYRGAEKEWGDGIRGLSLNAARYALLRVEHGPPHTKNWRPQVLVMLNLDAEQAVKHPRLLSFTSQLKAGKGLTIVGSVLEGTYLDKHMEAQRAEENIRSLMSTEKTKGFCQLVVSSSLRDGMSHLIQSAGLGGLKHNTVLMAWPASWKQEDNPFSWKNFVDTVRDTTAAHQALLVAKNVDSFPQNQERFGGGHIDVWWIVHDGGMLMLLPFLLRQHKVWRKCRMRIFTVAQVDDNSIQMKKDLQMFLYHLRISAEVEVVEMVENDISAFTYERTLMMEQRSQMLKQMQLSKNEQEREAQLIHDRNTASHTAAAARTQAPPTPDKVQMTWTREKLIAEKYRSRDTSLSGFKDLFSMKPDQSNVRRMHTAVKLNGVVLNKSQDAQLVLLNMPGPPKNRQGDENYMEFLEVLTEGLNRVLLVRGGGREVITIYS
Procedure: FLIPR TI Flux assay. HEK-293 cells were washed with HBSS, and then incubated with loading buffer containing TI sensitive fluorescent dye (https://www.moleculardevices.com), 20 μM bumetanide 20 μM ouabain and 2.5 mM probenecid for 1 h at room temperature (RT) under control conditions or with drugs in the dark using a FlexStation 3 microplate reader (Molecular Devices) and imaged […] for 30 min. Stimulus buffer was added containing 5 mM K^+/0.5 mM Tl^+ and cells were imaged every 1.5 over a 190 second time course The initial rate Tl^+ uptake (Relative Fluorescence Units (RFU) per second) was determined following addition of the stimulus buffer as outlined previously (Conway et al., 2017, supra) (Lee et al., 2022, supra).
Several studies have shown that the activity and plasma membrane accumulation of KCC2 is potentiated via phosphorylation of S940, a process mediated by the activity of protein kinase C and protein phosphatase 1 (Lee et al., 2011, supra; Lee et al., J Biol Chem 282, 29777-29784 (2007); Moore et al., Proc. Natl. Acad. Sci. U.S.A 115, 10166-10171 (2018); Moore et al., Trends Neurosci. 40, 555-571 (2017); Silayeva et al., Proc. Natl. Acad. Sci. U.S.A 112, 3523-3528 (2015)). […] Compared to KCC2, effects on KCC3, KCC4, and NKCC1 were only seen at concentrations more than 35-fold that of KCC2 (≥100 μM) (FIG. 1G).

Q: With `C[C@@H]1CN(c2nc3c(c(Nc4ccc(C5CCCCC5)cc4)n2)COC3)CCO1` [Compound A, (R)—N-(4-cyclohexylphenyl)-2-(2-methylmorpholino)-5,7-dihydrofuro[3,4-d]pyrimidin-4-amine] as the compound, how does the “effect on activity of kinase panel” value [1] read?
A: did not modify the activity

Q: What about the “gross effects on mouse behavior” value [2] of the same compound?
A: no gross effects

Q: What about the “total distance traveled in open field” value ([2]; mouse, sc, 50 mg/kg) of the same compound?
A: 6134.2±235.3 cm

Q: What about the EC50 (KCC4) of the same compound?
A: ≥ 100 µM
